Patent US7855290B2, “Pyridine derivatives and pyrimidine derivatives (3)” (Eisai R&D Management Co., Ltd., priority 2005, dated 2010)

These molecules were tested against T1, HGFR (Homo sapiens, UniProt P08581) (assay: Inhibitory activity against the HGFR autophosphorylation using ELISA (MKN-45 cells)). Details: 1 hr with test substance.
T1 construct: endogenous in cells; host or cells: MKN-45 human gastric cancer cells
Format: cell-based
Description: Human gastric cancer cells (MKN-45) were suspended in a 1% FBS-containing RPMI1640 medium (purchased from Sigma). The cell suspension (1×10^5 cells/ml) was put in a 96-well plate for cell culture (purchased from NUNC, Production No. 167008) at 0.1 ml/well, and then cultured in a 5% CO2 incubator (37° C.) overnight. After the culture, from each well was removed the supernatant, followed by adding 0.05 ml of a 1% FBS-containing RPMI1640 medium. Then, the well was supplied with 0.05 ml of the test substance dissolved in dimethyl sulfoxide (diluted with a 1% FBS-containing RPMI1640 medium), followed by culturing in a 5% CO2 incubator (37° C.) for 1 hr. From each well was removed the supernatant, and each well was washed with 150 μl of PBS, followed by adding 100 μl of a lysis buffer (50 mM Hepes (pH 7.4), 150 mM NaCl, 10% (v/v) glycerol, 1% Triton X-100, 1.5 mM MgCl2, 1 mM EDTA (pH 8.0), 100 mM NaF, 1 mM PMSF, 10 μg/ml Aprotinin, 50 μg/ml Leupeptin, 1 μg/ml Pepstatin A and 1 mM Na3VO4). The plate was shaken at 4° C. for 1 hr to prepare the cell extract.
To a 96-well plate for ELISA (purchased from COSTAR, Production No. 3369) was added 50 μl of 60 mM bicarbonate buffer (pH 9.6) containing 50 μg/ml of an anti-phosphotyrosine antibody (PY20, purchased from Transduction Laboratory, Production No. P-11120). The plate was incubated at 4° C. overnight.
Each well of the plate prepared in 2. was washed three times with 200 μl of PBS, and supplied with 150 μl of 3% BSA/PBS, followed by incubating at room temperature for 2 hrs. Each well was washed three times with 200 μl of PBS, and supplied with 50 μl of the above cell extract, followed by incubating at 4° C. overnight. After the incubation, each well was washed three times with 250 μl of a washing solution (0.1% BSA, 20 mM Tris-HCl (pH 7.6), 137 mM NaCl, and 0.05% Tween-20), and supplied with 70 μl of anti-HGFR antibody (h-Met(C-12), purchased from Santa Cruz, Production No. sc-10) 2,000-fold diluted with a reaction solution (1% BSA, 20 mM Tris-HCl (pH 7.6), 137 mM NaCl and 0.05% Tween-20), followed by incubating at room temperature for 1 hr. The well was washed three times with 250 μl of the washing solution, and supplied with 70 μl of peroxidase-labelled anti-rabbit IgG antibody (purchased from Cell Signaling, Production No. 7074) 2,000-fold diluted with the reaction solution, followed by incubating at room temperature for 1 hr. Each well was washed three times with 250 μl of the washing solution, and supplied with 70 μl of TMB Membrane Peroxidase Substrate (purchased from Funakoshi, Production No. 50-5077-03), followed by incubating at room temperature for 10 min. Each well was supplied with 70 μl of 1 M phosphoric acid, and using the Plate Reader MTP-500 (Corona Electric), the absorbance of the well was instantly determined at a measurement wavelength of 450 nm. While defining the absorbance of a well supplied with the cell extract having no test substance as 100% HGFR autophosphorylation activity, and the absorbance of a well supplied with 50 μl of the lysis buffer as 0% HGFR autophosphorylation activity, the HGFR autophosphorylation activity (%) was calculated for each well.

T1 sequence (P08581 25-1390): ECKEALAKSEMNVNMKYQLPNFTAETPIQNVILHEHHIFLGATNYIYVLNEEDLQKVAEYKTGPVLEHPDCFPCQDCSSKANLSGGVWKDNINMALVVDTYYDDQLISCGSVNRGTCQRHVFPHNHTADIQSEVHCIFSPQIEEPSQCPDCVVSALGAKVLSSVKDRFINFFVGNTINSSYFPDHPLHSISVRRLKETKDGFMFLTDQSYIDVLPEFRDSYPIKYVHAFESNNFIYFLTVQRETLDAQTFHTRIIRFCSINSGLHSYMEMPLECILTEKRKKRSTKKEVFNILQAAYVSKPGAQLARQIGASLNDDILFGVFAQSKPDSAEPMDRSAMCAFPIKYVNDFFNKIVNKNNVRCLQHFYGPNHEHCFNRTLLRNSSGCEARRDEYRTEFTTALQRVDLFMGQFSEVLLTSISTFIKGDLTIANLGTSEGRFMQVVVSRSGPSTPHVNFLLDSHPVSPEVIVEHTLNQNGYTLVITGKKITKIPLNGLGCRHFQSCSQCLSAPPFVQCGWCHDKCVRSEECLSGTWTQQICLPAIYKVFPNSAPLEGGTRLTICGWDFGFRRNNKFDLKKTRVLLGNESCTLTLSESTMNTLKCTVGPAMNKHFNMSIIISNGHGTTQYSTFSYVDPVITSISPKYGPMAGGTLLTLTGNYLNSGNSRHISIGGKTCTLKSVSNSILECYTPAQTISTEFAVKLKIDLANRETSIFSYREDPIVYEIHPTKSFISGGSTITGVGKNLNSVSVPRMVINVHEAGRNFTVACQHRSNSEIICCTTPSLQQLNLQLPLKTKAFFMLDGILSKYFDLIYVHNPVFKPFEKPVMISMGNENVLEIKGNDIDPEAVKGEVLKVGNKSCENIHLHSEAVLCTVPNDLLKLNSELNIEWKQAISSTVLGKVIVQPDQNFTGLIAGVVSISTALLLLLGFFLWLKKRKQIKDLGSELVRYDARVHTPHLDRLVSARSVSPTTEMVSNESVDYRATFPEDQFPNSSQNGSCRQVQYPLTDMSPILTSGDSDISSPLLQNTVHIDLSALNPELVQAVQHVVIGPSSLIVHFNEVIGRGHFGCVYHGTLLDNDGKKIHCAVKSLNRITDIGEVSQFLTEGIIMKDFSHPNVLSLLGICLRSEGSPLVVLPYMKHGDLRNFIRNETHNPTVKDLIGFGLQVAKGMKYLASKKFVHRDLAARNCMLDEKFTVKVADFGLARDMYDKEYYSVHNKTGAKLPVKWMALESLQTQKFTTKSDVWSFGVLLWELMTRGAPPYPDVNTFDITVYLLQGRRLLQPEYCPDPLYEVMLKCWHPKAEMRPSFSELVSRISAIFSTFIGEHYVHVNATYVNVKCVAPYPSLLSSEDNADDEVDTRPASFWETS

Row | IC50 [nM] | Compound
1 | 4.6 | CN(C)CCN1CCC(N(C)C(=O)Nc2cc(Oc3ccc(NC(=O)C4(C(=O)Nc5ccc(F)cc5)CC4)c(F)c3)ccn2)CC1 [Example 25, N-(4-{[2-({[{1-[2-(Dimethylamino)ethyl]piperidin-4-yl}(methyl)amino]carbonyl}amino)pyridin-4-yl]oxy}-2-fluorophenyl)-N′-(4-fluorophenyl)cyclopropane-1,1-dicarboxamide]
2 | 8.4 | O=C(Nc1cc(Oc2ccc(NC(=O)C3(C(=O)Nc4ccc(F)cc4)CC3)cc2F)ccn1)N1CCC(CN2CCC2)CC1 [Example 26, N-(4-{[2-({[4-(Azetidin-1-ylmethyl)piperidin-1-yl]carbonyl}amino)pyridin-4-yl]oxy}-3-fluorophenyl)-N′-(4-fluorophenyl)cyclopropane-1,1-dicarboxamide]
3 | 32 | O=C(Nc1cc(Oc2ccc(NC(=O)C3(C(=O)Nc4ccc(F)cc4)CC3)cc2)ccn1)N1CCC(CN2CCC2)CC1 [Example 27, N-(4-{[2-({f [4-(Azetidin-1-ylmethyl)piperidin-1-yl]carbonyl}amino)pyridin-4-yl]oxy}phenyl)-N′-(4-fluorophenyl)cyclopropane-1,1-dicarboxamide]
4 | 43 | O=C(Nc1cc(Oc2ccc(NC(=O)C3(C(=O)Nc4ccc(F)cc4)CC3)cc2)ccn1)N1CCN(CCN2CCC2)CC1 [Example 28, N-(4-{[2-({[4-(2-Azetidin-1-ylethyl)piperazin-1-yl]carbonyl}amino)pyridin-4-yl]oxy}phenyl)-N′-(4-fluorophenyl)cyclopropane-1,1-dicarboxamide]
5 | 30 | O=C(Nc1cc(Oc2ccc(NC(=O)C3(C(=O)Nc4ccc(F)cc4)CC3)cc2)ccn1)N1CCC(CN2CCCC2)CC1 [Example 29, N-(4-Fluorophenyl)-N′-(4-{[2-({[4-(pyrrolidin-1-ylmethyl)piperidin-1-yl]-carbonyl}amino)pyridin-4-yl]oxy}phenyl)cyclopropane-1,1-dicarboxamide]
6 | 12 | CN(C)CCN1CCN(C(=O)Nc2cc(Oc3ccc(NC(=O)C4(C(=O)Nc5ccc(F)cc5)CC4)cc3)ccn2)CC1 [Example 30, N-[4-({2-[({4-[2-(Dimethylamino)ethyl]piperazin-1-yl}carbonyl)amino]pyridin-4-yl}oxy)phenyl]-N′-(4-fluorophenyl)cyclopropane-1,1-dicarboxamide]
7 | 30 | CN1CCC(N2CCN(C(=O)Nc3cc(Oc4ccc(NC(=O)C5(C(=O)Nc6ccc(F)cc6)CC5)cc4)ccn3)CC2)CC1 [Example 31, N-(4-Fluorophenyl)-N′-(4-{[2-({[4-(1-methylpiperidin-4-yl)piperazin-1-yl]carbonyl}amino)pyridin-4-yl]oxy}phenyl)cyclopropane-1,1-dicarboxamide]
8 | 15 | CN1CCN(C2CCN(C(=O)Nc3cc(Oc4ccc(NC(=O)C5(C(=O)Nc6ccc(F)cc6)CC5)cc4)ccn3)CC2)CC1 [Example 32, N-(4-Fluorophenyl)-N′-(4-{[2-({[4-(4-methylpiperazin-1-yl)piperidin-1-yl]carbonyl}amino)pyridin-4-yl]oxy}phenyl)cyclopropane-1,1-dicarboxamide]
9 | 25 | CN1CCC(N(C)C(=O)Nc2cc(Oc3ccc(NC(=O)C4(C(=O)Nc5ccc(F)cc5)CC4)cc3F)ncn2)CC1 [Example 33, N-(3-Fluoro-4-{[6-({[methyl(1-methylpiperidin-4-yl)amino]carbonyl}amino)pyrimidin-4-yl]oxy}phenyl)-N′-(4-fluorophenyl)cyclopropane-1,1-dicarboxamide]
10 | 81 | O=C(Nc1cc(Oc2ccc(NC(=O)C3(C(=O)Nc4ccc(F)cc4)CC3)cc2F)ncn1)N1CCC(N2CCC2)CC1 [Example 34, N-{4-[(6-{[(4-Azetidin-1-ylpiperidin-1-yl)carbonyl]amino}pyrimidin-4-yl)oxy]-3-fluorophenyl}-N′-(4-fluorophenyl)cyclopropane-1,1-dicarboxamide]
11 | 120 | O=C(Nc1cc(Oc2ccc(NC(=O)C3(C(=O)Nc4ccc(F)cc4)CC3)cc2F)ncn1)N1CCOCC1 [Example 35, N-[3-Fluoro-4-({6-{(morpholin-4-ylcarbonyl)amino}pyrimidin-4-yl}oxy)phenyl]-N′-(4-fluorophenyl)cyclopropane-1,1-dicarboxamide]
